Values quoted from earlier work in paper PMC5849076 (Biochemistry, 2018).

What was measured:
DaCld = DaCld (Dechloromonas aromatica, UniProt Q47CX0)
Chain of DaCld (Q47CX0 35-282): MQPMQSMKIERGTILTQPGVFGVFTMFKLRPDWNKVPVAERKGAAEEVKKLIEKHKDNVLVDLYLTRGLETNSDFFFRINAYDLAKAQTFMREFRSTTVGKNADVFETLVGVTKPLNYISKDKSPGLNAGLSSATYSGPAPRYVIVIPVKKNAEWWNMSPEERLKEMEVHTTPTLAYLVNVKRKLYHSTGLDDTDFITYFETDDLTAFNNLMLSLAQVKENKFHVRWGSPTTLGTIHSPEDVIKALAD

## chlorite [ClO2^−]
KpCld
  number of turnovers: 6700 ± 300 equivalents ClO2^−/heme
DaCld
  turnovers prior to irreversible inactivation: > 20,000 equivalents of ClO2^− per heme
